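Five compound concentrations were applied to cells in 96-well plates for 48 hours; endpoints were derived by simple linear interpolation of the resulting dose-response curve. At the GI50, growth is halved.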 Calls of active or inactive are those of the source. No stated cut-off is given here; in the data, active = GI50 up to about 1.1 µM and inactive = higher.
Experiments:
Assay in all cases: NCI-60 cell line screen, 48 h
HL-60 = tested on: HL-60
BT-549 = tested on: BT-549
A498 = tested on: A498
MCF7 = tested on: MCF7
SN12C = tested on: SN12C
ACHN = tested on: ACHN
HCT-116 = tested on: HCT-116
DU-145 = tested on: DU-145
SK-MEL-2 = tested on: SK-MEL-2
TK-10 = tested on: TK-10
EKVX = tested on: EKVX
PC-3 = tested on: PC-3
MDA-MB-435 = tested on: MDA-MB-435
OVCAR-5 = tested on: OVCAR-5
CAKI-1 = tested on: CAKI-1
RPMI-8226 = tested on: RPMI-8226
MDA-N = tested on: MDA-N
NCI-H226 = tested on: NCI-H226
UACC-62 = tested on: UACC-62

SMILES | GI50 (HL-60) | GI50 (BT-549) | GI50 (A498) | GI50 (MCF7) | GI50 (SN12C) | GI50 (ACHN) | GI50 (HCT-116) | GI50 (DU-145) | GI50 (SK-MEL-2) | GI50 (TK-10) | GI50 (EKVX) | GI50 (PC-3) | GI50 (MDA-MB-435) | GI50 (OVCAR-5) | GI50 (CAKI-1) | GI50 (RPMI-8226) | GI50 (MDA-N) | GI50 (NCI-H226) | GI50 (UACC-62)
COc1ccc2c(c1)/C(=C\c1cccc(/C=C3/C(=O)Nc4ccc(OC)cc43)n1)C(=O)N2 | 0.506 µM (active) | 0.91 µM (active) | 2.94 µM (inactive) | 0.466 µM (active) | 0.757 µM (active) | 1.71 µM (inactive) | 0.352 µM (active) | 2.1 µM (inactive) | 3.01 µM (inactive) | 1.73 µM (inactive) | 2.84 µM (inactive) | 1.32 µM (inactive) | 1.17 µM (inactive) | 1.01 µM (active) | 1.99 µM (inactive) |  |  |  | 
O=c1[nH]nc(-c2ccccc2)c2[nH]c(-c3ccccc3)cc12 | > 100 µM (inactive) | > 100 µM (inactive) |  |  | > 100 µM (inactive) |  | > 100 µM (inactive) | > 100 µM (inactive) |  |  | > 100 µM (inactive) |  | > 100 µM (inactive) | > 100 µM (inactive) | > 100 µM (inactive) | 88.3 µM (inactive) | > 100 µM (inactive) |  | 
CN1C(=O)C2CCCC(=O)N2c2cccnc21 (configuration not stated) | > 100 µM (inactive) | > 100 µM (inactive) |  | > 100 µM (inactive) | > 100 µM (inactive) | > 100 µM (inactive) | > 100 µM (inactive) | > 100 µM (inactive) | 32.4 µM (inactive) | > 100 µM (inactive) | > 100 µM (inactive) |  | > 100 µM (inactive) |  | > 100 µM (inactive) | > 100 µM (inactive) | > 100 µM (inactive) | > 100 µM (inactive) | 68.9 µM (inactive)
O=C1NC(=O)/C(=C\c2ccncc2)N1 | > 10 µM (inactive) | > 100 µM (inactive) |  | > 100 µM (inactive) | > 100 µM (inactive) | > 100 µM (inactive) | > 100 µM (inactive) | > 100 µM (inactive) | > 100 µM (inactive) | > 100 µM (inactive) | > 100 µM (inactive) | > 100 µM (inactive) | > 100 µM (inactive) | > 100 µM (inactive) | > 100 µM (inactive) |  | > 100 µM (inactive) | > 100 µM (inactive) | 
O=C(CC(=O)N1N=C(N(c2ccccc2)c2ccccc2)CC1c1ccccc1)Nc1ccccc1 (configuration not stated) | > 100 µM (inactive) | > 100 µM (inactive) |  | > 100 µM (inactive) |  | > 100 µM (inactive) | > 100 µM (inactive) | > 100 µM (inactive) | > 100 µM (inactive) | > 100 µM (inactive) | > 100 µM (inactive) | > 100 µM (inactive) | > 100 µM (inactive) | > 100 µM (inactive) | > 100 µM (inactive) | > 100 µM (inactive) |  | > 100 µM (inactive) | 34.4 µM (inactive)
CC(=O)Nc1c(S(=O)(=O)c2ccccc2)c(C)c(C)n1Cc1ccccc1 | > 100 µM (inactive) | > 100 µM (inactive) | > 100 µM (inactive) |  | > 100 µM (inactive) | > 100 µM (inactive) | > 100 µM (inactive) | > 100 µM (inactive) | > 100 µM (inactive) | > 100 µM (inactive) | > 100 µM (inactive) | 44.9 µM (inactive) | > 100 µM (inactive) | > 100 µM (inactive) | > 100 µM (inactive) | > 100 µM (inactive) | > 100 µM (inactive) | > 100 µM (inactive) | > 100 µM (inactive)
Nc1ccccc1-n1c2c(c3ccccc3c1=O)C(=O)c1ccccc1-2 | 0.046 µM (active) | 0.857 µM (active) | 54.5 µM (inactive) | 13.3 µM (inactive) | 42 µM (inactive) | 5.53 µM (inactive) | 20.8 µM (inactive) | 34 µM (inactive) | 19.9 µM (inactive) | > 10 µM (inactive) | 27.6 µM (inactive) | 16.1 µM (inactive) | 57.9 µM (inactive) | > 100 µM (inactive) | 16.7 µM (inactive) | 60.1 µM (inactive) |  | < 0.01 µM (active) | 17.2 µM (inactive)
CC(C)OC(=O)[C@H]1ON2O[C@H](O[C@@H]3CCCC[C@H]3c3ccccc3)C([Si](C)(C)c3ccccc3)[C@H]3OC(=O)[C@@H]1C32 (some centres not stated) | > 100 µM (inactive) | > 100 µM (inactive) | > 100 µM (inactive) | 30.1 µM (inactive) | > 100 µM (inactive) | > 100 µM (inactive) | > 100 µM (inactive) | > 100 µM (inactive) | > 100 µM (inactive) | > 100 µM (inactive) | > 100 µM (inactive) | > 100 µM (inactive) | > 100 µM (inactive) |  | > 100 µM (inactive) | > 100 µM (inactive) |  | > 100 µM (inactive) | > 100 µM (inactive)
COC(=O)NNC(=O)OC.COC(=O)Nc1ccccc1NC(=O)OC.COC(=O)Oc1nn(C(=O)OC)c(=O)c2ccccc12 | > 100 µM (inactive) |  | 39.1 µM (inactive) | > 100 µM (inactive) | > 100 µM (inactive) | > 100 µM (inactive) | > 100 µM (inactive) | > 100 µM (inactive) | > 100 µM (inactive) | > 100 µM (inactive) | > 100 µM (inactive) | > 100 µM (inactive) | > 100 µM (inactive) | > 100 µM (inactive) | > 100 µM (inactive) | > 100 µM (inactive) | > 100 µM (inactive) | > 100 µM (inactive) | > 100 µM (inactive)
O=Cc1cn(CCCCCn2cc(C=O)c3ccccc32)c2ccccc12 | > 100 µM (inactive) | > 100 µM (inactive) | 5.71 µM (inactive) |  | > 100 µM (inactive) | > 100 µM (inactive) | > 100 µM (inactive) | > 100 µM (inactive) | > 100 µM (inactive) | > 100 µM (inactive) | > 100 µM (inactive) | > 100 µM (inactive) | > 100 µM (inactive) | 1.68 µM (inactive) | > 100 µM (inactive) | > 100 µM (inactive) | > 100 µM (inactive) | 0.262 µM (active) | > 100 µM (inactive)
O=C1OCC2=Nc3cccc4cccc(c34)N12 | > 100 µM (inactive) | > 100 µM (inactive) |  | > 100 µM (inactive) | > 100 µM (inactive) | > 100 µM (inactive) | > 100 µM (inactive) | > 100 µM (inactive) |  | > 100 µM (inactive) | 57.1 µM (inactive) | > 100 µM (inactive) | > 100 µM (inactive) |  | > 100 µM (inactive) |  |  | > 100 µM (inactive) | > 100 µM (inactive)
COC12c3ccccc3-c3ccccc3C1[C@@H](C(=O)O)[C@H]2C(=O)O (some centres not stated) | > 10 µM (inactive) |  | > 10 µM (inactive) | > 10 µM (inactive) | > 10 µM (inactive) | > 10 µM (inactive) |  | > 10 µM (inactive) | > 10 µM (inactive) | > 10 µM (inactive) | > 10 µM (inactive) | > 10 µM (inactive) | > 10 µM (inactive) | > 10 µM (inactive) | > 10 µM (inactive) | > 10 µM (inactive) | > 10 µM (inactive) | > 10 µM (inactive) | 
Cc1nc2c(O)cccc2c(=O)[nH]1 | 174 µM (inactive) | 174 µM (inactive) | 419 µM (inactive) | 621 µM (inactive) | 532 µM (inactive) | 348 µM (inactive) | 341 µM (inactive) |  | > 1000 µM (inactive) | 302 µM (inactive) | 456 µM (inactive) | 451 µM (inactive) | 883 µM (inactive) | 382 µM (inactive) | 256 µM (inactive) | 135 µM (inactive) | 504 µM (inactive) | 203 µM (inactive) | 232 µM (inactive)
N#Cc1c(-c2ccccc2)c(/C=N/c2ccc(F)cc2)c(=O)n2c1[nH]c1ccccc12 |  | 35.5 µM (inactive) | 29.4 µM (inactive) | 36.6 µM (inactive) | 22.4 µM (inactive) | 18.5 µM (inactive) | 14.7 µM (inactive) |  | 26.9 µM (inactive) | 20.8 µM (inactive) | 19.8 µM (inactive) | 28.6 µM (inactive) | 18.4 µM (inactive) | 26.7 µM (inactive) | 13.6 µM (inactive) | 3.06 µM (inactive) | 10.4 µM (inactive) | 27.6 µM (inactive) | 
Nc1cc2c3c(cccc3c1)NC2=O | > 100 µM (inactive) |  | > 100 µM (inactive) | 27.9 µM (inactive) | 95.1 µM (inactive) | 25.1 µM (inactive) | > 100 µM (inactive) | > 100 µM (inactive) | > 100 µM (inactive) | > 100 µM (inactive) | 20.9 µM (inactive) | > 100 µM (inactive) | > 100 µM (inactive) | > 100 µM (inactive) | 24.6 µM (inactive) | > 100 µM (inactive) | 68.7 µM (inactive) | > 100 µM (inactive) | 63 µM (inactive)
Cc1cc(C)nc(NS(=O)(=O)c2ccc(NC(=O)NC(F)(F)F)cc2)n1 | > 100 µM (inactive) | > 100 µM (inactive) | > 100 µM (inactive) |  | > 100 µM (inactive) | > 100 µM (inactive) | > 100 µM (inactive) |  | > 100 µM (inactive) | > 100 µM (inactive) | > 100 µM (inactive) | > 100 µM (inactive) | > 100 µM (inactive) | > 100 µM (inactive) | 1.95 µM (inactive) | > 100 µM (inactive) | > 100 µM (inactive) |  | 
COc1ccc(NCc2cnc3nc(N)nc(N)c3c2C)cc1 |  | > 100 µM (inactive) | > 100 µM (inactive) | 2.13 µM (inactive) | 3.85 µM (inactive) | 0.56 µM (active) | 0.0785 µM (active) | 0.718 µM (active) | > 100 µM (inactive) | 41.4 µM (inactive) | 15.7 µM (inactive) |  | 0.428 µM (active) | 3.87 µM (inactive) | 6.55 µM (inactive) | 5.96 µM (inactive) | 0.174 µM (active) | 33.7 µM (inactive) | 0.274 µM (active)

Source: ChEMBL document CHEMBL1201862, “PubChem BioAssay data set” (2004)
